Measurements published in PubChem BioAssay (NCI).
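Each compound was tested at five concentrations against cells in 96-well plates for 48 hours. GI50: concentration for 50% inhibition of growth. TGI denotes the concentration required for complete inhibition of growth.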

What was measured:
Test in all cases: NCI-60 cell line screen, 48 h
[1] = system: 786-0 renal
[2] = system: A498 renal
[3] = system: A549 NSCLC
[4] = system: ACHN renal
[5] = system: BT-549 breast
[6] = system: CAKI-1 renal
[7] = system: CCRF-CEM leukemia
[8] = system: COLO 205 colon
[9] = system: DU-145 prostate
[10] = system: EKVX NSCLC
[11] = system: HCC-2998 colon
[12] = system: HCT-116 colon
[13] = system: HCT-15 colon
[14] = system: HL-60(TB) leukemia
[15] = system: HOP-62 NSCLC
[16] = system: HOP-92 NSCLC
[17] = system: HS 578T breast
[18] = system: HT29 colon
[19] = system: IGROV1 ovarian
[20] = system: K-562 leukemia
[21] = system: KM12 colon
[22] = system: LOX IMVI melanoma
[23] = system: M14 melanoma
[24] = system: MCF7 breast
[25] = system: MDA-MB-231 breast
[26] = system: MDA-MB-435
[27] = system: MOLT-4 leukemia
[28] = system: NCI-H226 lung
[29] = system: NCI-H23 lung
[30] = system: NCI-H460 lung
[31] = system: NCI-H522 lung
[32] = system: NCI/ADR-RES ovarian
[33] = system: OVCAR-3 ovarian
[34] = system: OVCAR-4 ovarian
[35] = system: OVCAR-5 ovarian
[36] = system: OVCAR-8 ovarian
[37] = system: PC-3 prostate
[38] = system: RPMI-8226 leukemia
[39] = system: RXF 393 renal
[40] = system: SF-268 CNS
[41] = system: SF-295 CNS
[42] = system: SF-539 CNS
[43] = system: SK-MEL-2 melanoma
[44] = system: SK-MEL-28 melanoma
[45] = system: SK-MEL-5 melanoma
[46] = system: SK-OV-3 ovarian
[47] = system: SN12C renal
[48] = system: SNB-19 CNS
[49] = system: SNB-75 CNS
[50] = system: SR leukemia
[51] = system: SW-620 colon
[52] = system: T-47D breast
[53] = system: TK-10 renal
[54] = system: U251 CNS
[55] = system: UACC-257 melanoma
[56] = system: UACC-62 melanoma
[57] = system: UO-31 renal
[58] = system: MALME-3M melanoma

Question: Which results are given for `Cc1ccc(-c2c3c(nn2-c2ccc(S(=O)(=O)NC(=O)Nc4ccccc4)cc2)-c2ccccc2C3)cc1`?
Answer: GI50 [1]: 22.7 µM; TGI [1]: > 100 µM; GI50 [2]: 19.6 µM; TGI [2]: 36.6 µM; GI50 [3]: 28 µM; TGI [3]: > 100 µM; GI50 [4]: 14.6 µM; TGI [4]: 30.5 µM; GI50 [5]: 18.8 µM; TGI [5]: 44.2 µM; GI50 [6]: 15.4 µM; TGI [6]: 45.5 µM; GI50 [7]: 2.13 µM; TGI [7]: > 100 µM; GI50 [8]: 19.5 µM; TGI [8]: 45.9 µM; GI50 [9]: 15.3 µM; TGI [9]: 33.9 µM; GI50 [10]: 18.1 µM; TGI [10]: 43.8 µM; GI50 [11]: 13.6 µM; TGI [11]: 37.9 µM; GI50 [12]: 19.2 µM; TGI [12]: > 100 µM; GI50 [13]: 15.5 µM; TGI [13]: 52.2 µM; GI50 [14]: 24.2 µM; TGI [14]: 83.7 µM; GI50 [15]: 32 µM; TGI [15]: > 100 µM; GI50 [16]: 18.1 µM; TGI [16]: 44.9 µM; GI50 [17]: 24.1 µM; TGI [17]: 73.9 µM; GI50 [18]: 35.7 µM; TGI [18]: > 100 µM; GI50 [19]: 3.67 µM; TGI [19]: 16.5 µM; GI50 [20]: 11.1 µM; TGI [20]: > 100 µM; GI50 [21]: 18 µM; TGI [21]: 51.2 µM; GI50 [22]: 12.3 µM; TGI [22]: > 100 µM; GI50 [23]: 24.6 µM; TGI [23]: 87.2 µM; GI50 [24]: 20.5 µM; TGI [24]: > 100 µM; GI50 [25]: 17.5 µM; TGI [25]: 55 µM; GI50 [26]: 28.1 µM; TGI [26]: > 100 µM; GI50 [27]: 5.14 µM; TGI [27]: > 100 µM; GI50 [28]: 15.4 µM; TGI [28]: 56 µM; GI50 [29]: 15 µM; TGI [29]: 37.6 µM; GI50 [30]: 19.3 µM; TGI [30]: 70.2 µM; GI50 [31]: 11.7 µM; TGI [31]: 30.5 µM; GI50 [32]: 23.1 µM; TGI [32]: 75.5 µM; GI50 [33]: 32.9 µM; TGI [33]: > 100 µM; GI50 [34]: 19.7 µM; TGI [34]: 51.5 µM; GI50 [35]: 30.1 µM; TGI [35]: 97.2 µM; GI50 [36]: 19.1 µM; TGI [36]: 52.9 µM; GI50 [37]: 16 µM; TGI [37]: 38 µM; GI50 [38]: 7.22 µM; TGI [38]: 69.3 µM; GI50 [39]: 17.9 µM; TGI [39]: 43.1 µM; GI50 [40]: 19.1 µM; TGI [40]: 55.7 µM; GI50 [41]: 34.5 µM; TGI [41]: > 100 µM; GI50 [42]: 18.2 µM; TGI [42]: 38.9 µM; GI50 [43]: 16.1 µM; TGI [43]: 32.5 µM; GI50 [44]: 21.2 µM; TGI [44]: 46.9 µM; GI50 [45]: 15.1 µM; TGI [45]: 36.5 µM; GI50 [46]: 18.2 µM; TGI [46]: 48.1 µM; GI50 [47]: 16.9 µM; TGI [47]: 35.8 µM; GI50 [48]: 30 µM; TGI [48]: > 100 µM; GI50 [49]: 22.9 µM; TGI [49]: 66.3 µM; GI50 [50]: 2.26 µM; TGI [50]: 6.92 µM; GI50 [51]: 12 µM; TGI [51]: > 100 µM; GI50 [52]: 30.7 µM; TGI [52]: > 100 µM; GI50 [53]: 10.3 µM; TGI [53]: 24.8 µM; GI50 [54]: 17.5 µM; TGI [54]: 37.6 µM; GI50 [55]: 18.7 µM; TGI [55]: 39.9 µM; GI50 [56]: 12.8 µM; TGI [56]: 27.4 µM; GI50 [57]: 8.78 µM; TGI [57]: 24.3 µM

Question: What does the source list for `O=C(CSCC(=O)N/N=C\c1cc(Cl)cc(Cl)c1O)N/N=C\c1cc(Cl)cc(Cl)c1O`?
Answer: TGI [1]: 20 µM; TGI [3]: 32.8 µM; TGI [4]: 11.7 µM; TGI [5]: 25.8 µM; TGI [6]: 15 µM; TGI [7]: 0.748 µM; TGI [8]: 20.4 µM; TGI [9]: 21.1 µM; TGI [10]: 28.3 µM; TGI [12]: 12.8 µM; TGI [13]: 12.9 µM; TGI [14]: 13.9 µM; TGI [15]: 18.3 µM; TGI [16]: 31.4 µM; TGI [17]: 20.1 µM; TGI [18]: 22.3 µM; TGI [19]: 15.3 µM; TGI [20]: 12.7 µM; TGI [21]: 19.7 µM; TGI [22]: 10.8 µM; TGI [23]: 17.5 µM; TGI [58]: 8.02 µM; TGI [24]: 34.5 µM; TGI [25]: 13.5 µM; TGI [26]: 21.1 µM; TGI [27]: 8.81 µM; TGI [28]: 15 µM; TGI [29]: 22.9 µM; TGI [30]: 42.8 µM; TGI [31]: 6.59 µM; TGI [32]: 12.5 µM; TGI [33]: 6.83 µM; TGI [34]: 19.1 µM; TGI [35]: 22.9 µM; TGI [36]: 14.3 µM; TGI [37]: 18.5 µM; TGI [39]: > 100 µM; TGI [40]: 15.7 µM; TGI [41]: 21 µM; TGI [42]: 11.1 µM; TGI [43]: 12.9 µM; TGI [44]: 18.9 µM; TGI [45]: 16.3 µM; TGI [46]: 24 µM; TGI [47]: 16.2 µM; TGI [48]: > 100 µM; TGI [49]: 36 µM; TGI [50]: 11 µM; TGI [51]: 16.2 µM; TGI [52]: 27.9 µM; TGI [53]: 21 µM; TGI [54]: 6.61 µM; TGI [55]: 18.2 µM; TGI [56]: 13.7 µM; TGI [57]: 17.5 µM
